Where “and” joins values, the source holds several entries; their conditions need not be identical. Equal values may be shown once.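 96-well plates; 48 h exposure; 5 concentrations. Endpoints by linear interpolation between flanking doses. Not reached: highest tested concentration assigned. The concentration for 50% growth inhibition is given as GI50. Definition used: TGI = concentration required for complete inhibition of growth.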
Assays:
Assay in all cases: inhibition of tumour cell growth, NCI panel, 48 h
CAKI-1 renal = test system: CAKI-1 renal
OVCAR-4 ovarian = test system: OVCAR-4 ovarian
SF-268 CNS = test system: SF-268 CNS
ACHN renal = test system: ACHN renal
SF-295 CNS = test system: SF-295 CNS
IGROV1 ovarian = test system: IGROV1 ovarian
KM12 colon = test system: KM12 colon
MDA-MB-435 = test system: MDA-MB-435
UO-31 renal = test system: UO-31 renal
LOX IMVI melanoma = test system: LOX IMVI melanoma

SMILES	GI50 (CAKI-1 renal)	TGI (CAKI-1 renal) [µM]	GI50 (OVCAR-4 ovarian) [µM]	TGI (OVCAR-4 ovarian) [µM]	GI50 (SF-268 CNS) [µM]	TGI (SF-268 CNS) [µM]	GI50 (ACHN renal) [µM]	TGI (ACHN renal) [µM]	GI50 (SF-295 CNS) [µM]	TGI (SF-295 CNS) [µM]	GI50 (IGROV1 ovarian) [µM]	TGI (IGROV1 ovarian) [µM]	GI50 (KM12 colon) [µM]	TGI (KM12 colon) [µM]	GI50 (MDA-MB-435) [µM]	TGI (MDA-MB-435) [µM]	GI50 (UO-31 renal) [µM]	TGI (UO-31 renal) [µM]	GI50 (LOX IMVI melanoma) [µM]	TGI (LOX IMVI melanoma) [µM]
CCSc1nc(N)c2cnn(C)c2n1	25.9 µM	> 100	81.2	> 100	33	85.1	44.4	> 100	51.7	> 100	53.5	> 100	34.6	> 100	38.7	> 100	38.3	> 100	33	> 100
CC(=O)N[C@@H]1CCC[C@H](C(=O)Nc2cc(-c3cnn4c3CC(C)(C)C4)c(Cl)cn2)C1	< 0.01 µM	> 100	0.0235	25.4	< 0.01	0.431	< 0.015	> 100	< 0.0125	> 100	< 0.01	> 100	< 0.01	12.2	< 0.013	11.9	0.0241	–	< 0.01	> 100
CC(=O)Nc1ccc(-n2cnc3cc(-c4ccc(OCCN5CCCCC5)cc4)ccc32)cc1	6.01 µM	11.7	4.85	11.7	5.28	11.5	3.61	11.4	5.5	10.6	4.93	11.5	0.358	5.76	5.81	10.4	2.33	7.06	4.5	8.88
CCOc1cccnc1/C=N/NC(N)=S	3.51 µM	> 100	2.79	> 100	3.42	> 100	4.01	> 100	3.92	> 100	5.01	> 100	4.38	> 100	4.53	> 100	2.9	26.6	2.7	14
C=CC[PH+](c1ccccc1)c1ccccc1.C=CC[PH+](c1ccccc1)c1ccccc1.[Cl][Pt][Cl]	10.6 µM	22.7	4.78	16.8	14.2	32	3.73	12.9	37.9	> 100	3.68	13.9	15.4	35.7	14.8	28.9	3.95	16.4	2.1	4.7
COc1cc(/C=C\c2cccnc2Nc2ccccc2)cc(OC)c1OC	4.01 µM	61.1	9.78	> 100	8.19	> 100	5.33	78.1	4.92	35.9	12.6	> 100	6.5	> 100	5.63	43.3	5.09	72.8	4.51	24.6
CCCCCCN(CCCCCC)CC(O)c1cccc2ccc(Cl)cc12 (stereo not given)	2.64 µM	14.7	7.44	33	12.4	27.1	5.89	18.8	6.32	22.1	10.3	23.8	5.48	19.6	10.2	29.4	4.85	19.7	4.14	15.6
COc1cc(C(=O)/C=C/c2c(C(F)(F)F)nc3sccn23)cc(OC)c1OC	1.76 µM	5.31	3.05	17.6	1.74	3.57	1.82	3.66	2.58	7.86	2.66	61.4	1.47	2.97	1.61	4.35	1.87	3.71	1.36	2.89
CC(=O)C1=C(O)/C(=C\c2ccco2)OC1=O	–	> 10	–	> 10	–	> 10	–	> 10	–	> 10	–	> 10	–	> 10	–	> 10	–	> 10	–	> 10
CCc1nc(N)nc(N)c1-c1ccc([N+](=O)[O-])c(Cl)c1	–	> 100	–	> 100	–	> 100	–	> 100	–	> 100	–	> 100	–	> 100	–	> 100	–	> 100	–	> 100
CC(C)(C)c1ccc(S(=O)(=O)N[C@H]2CC[C@H]3[C@@H]4CCc5cc(O)ccc5[C@H]4CC[C@]23C)cc1	2.28 µM	6.26	2.91	10.2	3.94	14	2.28	5.67	1.66	3.16	3.74	10.8	1.93	3.87	1.79	3.33	1.81	4.11	1.77	3.17
CCCCCCCCCCCCCCCC(=O)OCC1OC(n2ccc(N)nc2=O)C(O)C1O (stereo not given)	–	> 100	–	> 100	–	> 100	–	> 44.2	–	> 100	–	> 100	–	> 100	–	> 100	–	> 44.7	–	> 100
O=c1[nH]c2cc(O)ccc2n2cc3c(F)cccc3c12	0.903 µM	> 100	> 100	> 100	2.57	> 100	2.04	> 100	2.85	> 100	2.16	> 100	1.86	> 100	0.278	> 100	0.995	> 100	0.748	> 100
COc1ccc(N(Cc2cc(OC)c(OC)c(OC)c2)C2OC(=O)c3ccccc32)cc1 (stereo not given)	0.532 µM	> 100	5.95	> 100	0.882	> 100	0.69	> 100	0.534	> 100	1.07	> 100	0.434	> 36.7	0.165	0.433	2.3	> 100	0.712	> 100
COc1cc(C2c3cc4c(cc3[C@@H](Nc3cccc(O)c3)C3COC(=O)[C@H]23)OCO4)cc(OC)c1O (stereo not given in full)	0.242 µM and 0.69 µM	4.59	–	37.6	0.942	14.1	0.356	3.56	0.585	8.07	–	30.4	–	11.6	–	18.8	0.779	7.4	0.535	7.3
C[C@]12CC[C@@H]3c4ccc(O)cc4CC[C@H]3[C@@H]1CC[C@@H]2NS(=O)(=O)c1ccc(-c2ccccc2)cc1	3.57 µM	> 100	2.43	19	3.93	> 100	2.98	20.1	3.06	13.2	6.66	> 100	3.81	18.4	3.21	12.3	3.56	> 100	10.6	23.9
CCCCCCCCCCCCNC(=O)[C@H]1CSC(c2ccc(OC)c(F)c2)N1 (stereo not given in full)	1.56 µM	2.94	0.699	1.99	0.216	0.455	1.63	3	1.72	3.25	0.325	0.902	0.335	1.14	0.193	0.385	1.63	3.01	0.19	0.398
Cc1cc2c(cc1Cl)SC1=NN(C)C(c3ccccc3O)N1S2(=O)=O (stereo not given)	> 100 µM	> 100	51.5	> 100	61.6	> 100	> 100	> 100	43.6	> 100	77.8	> 100	57.7	> 100	> 100	> 100	53.7	> 100	40.5	> 100
CCOC(=O)Cc1csc(NC(=O)C(OC(=O)c2ccc(N)cc2)c2ccccc2)n1 (stereo not given)	39.6 µM	> 100	32.7	> 100	35.5	> 100	44.9	> 100	42.2	> 100	52.8	> 100	37.5	> 100	31.1	> 100	54.4	> 100	41.7	> 100
OCCCCC#Cc1ccccc1C#Cc1cnccn1	26.4 µM	> 100	28.5	> 100	32.4	> 100	38.8	> 100	28.1	91.6	25.8	96	36.2	> 100	33.8	> 100	27	> 100	32	> 100

Source: PubChem BioAssay (NCI)
